Test results as given in patent US7732447B2, “Fused [d]pyridazin-7-ones” (Cephalon, Inc., priority 2006, dated 2010).

Experiments:
[1] = biological target: T1, vascular endothelial growth factor receptor-2 (VEGFR2) cytoplasmic domain (Homo sapiens, UniProt P35968); assay: Vascular Endothelial Growth Factor Receptor-2 kinase inhibition assay (TRF); assay type: biochemical; conditions: 300 nM compound; 40 μM ATP; read-out: VEGFR-2 % inhibition @ 300 nM
T1 construct: recombinant baculovirus-expressed vascular endothelial growth factor receptor-2 (VEGFR2) cytoplasmic domain; made in house
Protocol: Compounds were tested for their ability to inhibit the kinase activity of recombinant baculovirus-expressed vascular endothelial growth factor receptor-2 (VEGFR2) cytoplasmic domain using the time-resolved fluorescence (TRF) detection system. IC50s were conducted in 96-well Costar high binding plates (Corning Costar #3922, Corning, N.Y.). Briefly, each 96-well plate was coated with 100 μL/well of 10 μg/mL recombinant substrate, glutathione S-transferase-phospholipase C-γ fusion protein (GST-PLCγ Lot # 3P5.1A), in Tris-buffered saline (TBS). The VEGFR2 assay mixture (total volume=100 μL/well) consisting of 20 mM HEPES, pH 7.2, 40 μM ATP, 10 mM MnCl2, 0.1% bovine serum albumin (BSA), and test compound (diluted in DMSO; 2.5% DMSO final in assay) was then added to the assay plate. Enzyme (30 ng/mL VEGFR2 Lot # V2g-2.1A) was added and the reaction was allowed to proceed at 37° C. for 15 minutes. Detection of the phosphorylated product was performed by adding 100 μL/well of Eu-N1 labeled PY100 antibody (PerkinElmer Life Sciences #AD0160, Boston, Mass.) diluted 1:5000 in 0.25% BSA in TBS containing 0.05% Tween-20 (TBS-T). Incubation at 37° C. then proceeded for 1 hour, followed by addition of 100 μL enhancement solution (PerkinElmer Life Sciences #1244-105, Boston, Mass.). The plate was gently agitated and after 30 minutes, the fluorescence of the resulting solution was measured using the PerkinElmer EnVision 2100 (or 2102) multilabel plate reader.

[2] = biological target: T2, MLK1 (GST-MLK1KD) (Homo sapiens, UniProt P80192); assay: Mixed Lineage Kinase-1 inhibition assay (32P, myelin basic protein); assay type: biochemical; conditions: 60 μM ATP; for inhibition at 1 µM: 1 uM compound, read-out: MLK-1 % inhibition @ 1 uM; for IC50: read-out: MLK-1 IC50
T2 construct: 1 μg/mL of baculoviral GST-MLK1KD (Lot 23.1A); GST; made in house
Protocol: The activity assay for MLK1 was performed using the 96-well Millipore Multiscreen plate format. Each 50-μL assay mixture contained 50 mM HEPES (pH 7.0), 1 mM EGTA, 10 mM MgCl2, 1 mM DTT, 25 mM β-glycerophosphate, 60 μM ATP, 1 μCi [γ-^32P]ATP, 0.1% BSA, 500 μg/mL myelin basic protein (Upstate #13-104), 2% DMSO, various concentrations of test compound, and 1 μg/mL of baculoviral GST-MLK1KD (Lot 23.1A). Samples were incubated for 15 minutes at 37° C. The reaction was stopped by adding ice-cold 50% trichloroacetic acid (TCA) and the proteins were allowed to precipitate for 30 minutes at 4° C. The plates were then washed with ice-cold 25% TCA. Supermix scintillation cocktail was added, and the plates were allowed to equilibrate for 1-2 hours prior to counting in the Wallac MicroBeta 1450 Plus scintillation counter.

[3] = biological target: CDK5/GST-p25 (Homo sapiens, UniProt Q00535); assay: Cyclin-Dependent Kinase 5 inhibition assay (TRF); assay type: biochemical; conditions: 10 μM ATP; read-out: CDK-5 IC50
Protocol: Compounds were tested for their ability to inhibit the kinase activity of baculovirus-expressed cyclin-dependent kinase-5 complexed with GST-p25 (CDK5/GST-p25) using a a TRF detection system. Each 96-well Costar high binding plate (Corning Costar #3922, Corning, N.Y.) was coated with 100 μL/well of 50 μg/mL recombinant GST-tagged substrate [GST-retinoblastoma protein (Rb) Lot # 5.1A] in TBS. The CDK5/GST-p25 assay mixture (total volume=100 μL/well) consisting of 20 mM HEPES, pH 7.2, 10 μM ATP, 10 mM MgCl2, 5 mM EGTA, 25 mM β-glycerophosphate, 0.1% BSA, 2.5% DMSO, and various concentrations of test compound were then added to the assay plate. Enzyme (2 ng/mL CDK5/GST-p25 Lot # p25/CD5-3) was added and the reaction was allowed to proceed at 37° C. for 20 minutes. Detection of the phosphorylated product was performed by adding 100 μL/well of phospho-Rb (Ser-780) antibody (Cell Signaling #9307, Beverly, Mass.) diluted 1:10,000 in antibody dilution buffer (0.1% BSA in TBS-T). After 1-hour incubation at room temperature, 100 μL/well of Eu—N1 labelled anti-rabbit antibody diluted 1:50,000 in antibody dilution buffer (PerkinElmer Life Sciences #AD0105, Boston, Mass.) was added. Incubation at room temperature then proceeded for 1 hour, followed by addition of 100 μl enhancement solution (PerkinElmer Life Sciences #1244-105, Boston, Mass.). The plate was gently agitated and after a few minutes, the fluorescence of the resulting solution was measured using the PerkinElmer EnVision 2100 (or 2102) multilabel plate reader.

Chain of CDK5/GST-p25 (Q00535 whole entry, species assumed): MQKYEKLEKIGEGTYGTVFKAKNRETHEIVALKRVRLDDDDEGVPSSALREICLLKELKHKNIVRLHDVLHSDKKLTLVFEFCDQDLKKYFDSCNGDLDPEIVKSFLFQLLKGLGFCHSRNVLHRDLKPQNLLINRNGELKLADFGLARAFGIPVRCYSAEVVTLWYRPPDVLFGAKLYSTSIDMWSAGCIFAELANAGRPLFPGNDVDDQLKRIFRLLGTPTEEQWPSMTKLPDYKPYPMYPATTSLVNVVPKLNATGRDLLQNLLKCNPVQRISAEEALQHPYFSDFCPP
Chain of CDK5/GST-p25 (Q15078 99-307 partner limits assumed, species assumed): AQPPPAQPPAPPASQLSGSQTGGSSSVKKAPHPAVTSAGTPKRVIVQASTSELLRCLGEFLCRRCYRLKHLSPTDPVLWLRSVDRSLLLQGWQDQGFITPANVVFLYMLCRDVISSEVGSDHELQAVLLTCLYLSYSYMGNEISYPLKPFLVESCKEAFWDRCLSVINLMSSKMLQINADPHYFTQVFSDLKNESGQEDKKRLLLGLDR
T1 sequence (P35968 786-1356 limits assumed, species assumed): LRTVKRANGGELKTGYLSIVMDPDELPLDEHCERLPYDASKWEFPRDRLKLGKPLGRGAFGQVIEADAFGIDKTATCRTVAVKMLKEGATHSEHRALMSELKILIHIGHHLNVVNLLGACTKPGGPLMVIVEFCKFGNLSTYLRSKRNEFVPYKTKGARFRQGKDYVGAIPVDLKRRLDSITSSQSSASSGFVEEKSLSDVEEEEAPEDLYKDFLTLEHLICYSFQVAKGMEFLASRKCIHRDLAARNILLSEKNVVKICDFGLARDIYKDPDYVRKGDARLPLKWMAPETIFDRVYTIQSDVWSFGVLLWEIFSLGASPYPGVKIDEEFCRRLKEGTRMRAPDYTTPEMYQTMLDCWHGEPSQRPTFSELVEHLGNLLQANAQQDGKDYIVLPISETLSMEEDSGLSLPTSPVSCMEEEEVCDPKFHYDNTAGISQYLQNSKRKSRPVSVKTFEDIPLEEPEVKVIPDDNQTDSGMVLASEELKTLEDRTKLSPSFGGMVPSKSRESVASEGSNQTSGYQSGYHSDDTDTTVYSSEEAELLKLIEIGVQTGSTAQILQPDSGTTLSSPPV
T2 sequence (P80192 144-412 limits assumed, species assumed): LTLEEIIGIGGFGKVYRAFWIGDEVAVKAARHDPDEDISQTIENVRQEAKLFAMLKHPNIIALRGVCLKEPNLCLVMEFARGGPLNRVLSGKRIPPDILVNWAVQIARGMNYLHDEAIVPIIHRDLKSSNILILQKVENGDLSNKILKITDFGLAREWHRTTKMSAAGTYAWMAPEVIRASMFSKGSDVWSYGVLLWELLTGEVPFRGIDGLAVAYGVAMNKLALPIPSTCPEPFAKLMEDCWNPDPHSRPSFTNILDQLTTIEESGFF

| SMILES | inhibition at 0.3 µM [1] | inhibition at 1 µM [2] | IC50 [3] | inhibition at 0.3 µM ([2]; 300 nM compound, read-out: MLK-1 % inhibition (@300 nM)) | IC50 [2] | melting point |
| --- | --- | --- | --- | --- | --- | --- |
| O=c1[nH]nc(-c2ccc(-c3ccccc3)cc2)c2[nH]c3ccccc3c12 [Example 4i, 4-Biphenyl-4-yl-2,5-dihydro-pyridazino[4,5-b]indol-1-one] | 16% | 14% | – | – | – | – |
| O=c1[nH]nc(-c2ccncc2)c2[nH]c3ccc([N+](=O)[O-])cc3c12 [Example 4v, 8-Nitro-4-pyridin-4-yl-2,5-dihydro-pyridazino[4,5-b]indol-1-one] | – | – | > 3000 nM | – | – | – |
| O=c1[nH]nc(-c2ccc(O)cc2)c2c1[nH]c1ccccc12 [Example 14e, 1-(4-Hydroxy-phenyl)-3,5-dihydro-pyridazino[4,5-b]indol-4-one] | – | – | > 3000 nM | – | – | – |
| O=c1[nH]nc(-c2ccncc2)c2[nH]c3ccccc3c12 [Example 4d, 4-Pyridin-4-yl-2,5-dihydro-pyridazino[4,5-b]indol-1-one] | 18% | 0% | 3820 nM | – | – | – |
| O=c1[nH]nc(-c2cc3ccccc3s2)c2c1[nH]c1ccccc12 [Example 14b, 1-Benzo[b]thiophen-2-yl-3,5-dihydro-pyridazino[4,5-b]indol-4-one] | 3% | 0% | – | – | – | – |
| O=c1[nH]nc(-c2ccccn2)c2[nH]c3ccccc3c12 [Example 4b, 4-Pyridin-2-yl-2,5-dihydro-pyridazino[4,5-b]indol-1-one] | 7% | 0% | – | – | – | – |
| O=c1[nH]nc(-c2cc3ccccc3o2)c2[nH]c3ccc(O)cc3c12 [Example 4q, 4-Benzofuran-2-yl-8-hydroxy-2,5-dihydro-pyridazino[4,5-b]indol-1-one] | 21% | – | – | 67% | 138 nM | – |
| O=c1[nH]nc(-c2ccc(O)cc2)c2[nH]c3ccccc3c12 [Example 4s, 4-(4-Hydroxy-phenyl)-2,5-dihydro-pyridazino[4,5-b]indol-1-one] | – | – | 657 nM | – | – | > 300 °C |
| O=c1[nH]nc(-c2cc3ccccc3o2)c2[nH]c3ccccc3c12 [Example 4k, 4-Benzofuran-2-yl-2,5-dihydro-pyridazino[4,5-b]indol-1-one] | 0% | 41% | – | – | 2660 nM | – |
| COc1ccc2c(c1)[nH]c1c(-c3ccc(O)cc3)n[nH]c(=O)c12 [Example 4u, 4-(4-Hydroxy-phenyl)-7-methoxy-2,5-dihydro-pyridazino[4,5-b]indol-1-one] | – | – | 756 nM | – | – | > 300 °C |
| Cn1c(-c2n[nH]c(=O)c3c2[nH]c2ccccc23)nc2ccccc21 [Example 4h, 4-(1-Methyl-1H-benzoimidazol-2-yl)-2,5-dihydro-pyridazino[4,5-b]indol-1-one] | 0% | 0% | – | – | – | – |
| Cn1c2ccccc2c2c(=O)[nH]nc(-c3cc4ccccc4s3)c21 [Example 11b, 4-Benzo[b]thiophen-2-yl-5-methyl-2,5-dihydro-pyridazino[4,5-b]indol-1-one] | 0% | 0% | – | – | – | – |
| O=c1[nH]nc(-c2cc3ccccc3o2)c2[nH]c3cc(OCc4ccccc4)ccc3c12 [Example 4p, 4-Benzofuran-2-yl-7-benzyloxy-2,5-dihydro-pyridazino[4,5-b]indol-1-one] | 14% | 0% | – | – | – | – |
| O=c1[nH]nc(-c2cnc3ccccc3n2)c2[nH]c3ccccc3c12 [Example 4j, 4-Quinoxalin-2-yl-2,5-dihydro-pyridazino[4,5-b]indol-1-one] | 0% | 0% | – | – | – | – |
| Cn1c2ccccc2c2c(=O)[nH]nc(-c3cc4ccccc4o3)c21 [Example 11a, 4-Benzofuran-2-yl-5-methyl-2,5-dihydro-pyridazino[4,5-b]indol-1-one] | 0% | 19% | – | – | – | – |
| Cn1ccnc1-c1n[nH]c(=O)c2c1[nH]c1ccccc12 [Example 4g, 4-(1-Methyl-1H-imidazol-2-yl)-2,5-dihydro-pyridazino[4,5-b]indol-1-one] | 0% | 2% | – | – | – | – |
| O=c1[nH]nc(-c2ccc3ccccc3c2)c2c1[nH]c1ccccc12 [Example 14c, 1-Naphthalen-2-yl-3,5-dihydro-pyridazino[4,5-b]indol-4-one] | 1% | 12% | – | – | – | – |
| O=c1[nH]nc(-c2nccs2)c2[nH]c3ccccc3c12 [Example 4f, 4-Thiazo-2-yl-2,5-dihydro-pyridazino[4,5-b]indol-1-one] | 0% | 5% | – | – | – | – |
| Cc1ccc(-c2n[nH]c(=O)c3c2[nH]c2ccccc23)o1 [Example 4e, 4-(5-Methyl-furan-2-yl)-2,5-dihydro-pyridazino[4,5-b]indol-1-one] | 4% | 10% | – | – | – | – |
| O=c1[nH]nc(-c2cc3ccccc3o2)c2[nH]c3cccc(OCc4ccccc4)c3c12 [Example 4n, 4-Benzofuran-2-yl-9-benzyloxy-2,5-dihydro-pyridazino[4,5-b]indol-1-one] | 2% | 44% | – | – | – | – |
| O=c1[nH]nc(-c2cc3ccccc3o2)c2[nH]c3cc4c(cc3c12)OCO4 [Example 4m, 8-Benzofuran-2-yl-6,9-dihydro-1,3-dioxa-6,7,9-triaza-cyclopenta[b]fluoren-5-one] | 0% | 46% | – | – | – | – |
| O=c1[nH]nc(-c2cccnc2)c2[nH]c3ccccc3c12 [Example 4c, 4-Pyridin-3-yl-2,5-dihydro-pyridazino[4,5-b]indol-1-one] | 14% | 0% | – | – | – | – |
| COc1ccc2[nH]c3c(-c4cc5ccccc5o4)n[nH]c(=O)c3c2c1 [Example 4l, 4-Benzofuran-2-yl-8-methoxy-2,5-dihydro-pyridazino[4,5-b]indol-1-one] | 9% | 53% | – | – | 1020 nM | – |
| COc1ccc2c(c1)[nH]c1c(-c3ccc(OCc4ccccc4)cc3)n[nH]c(=O)c12 [Example 4t, 4-(4-Benzyloxy-phenyl)-7-methoxy-2,5-dihydro-pyridazino[4,5-b]indol-1-one] | – | – | > 1000 nM | – | – | > 300 °C |
| Cn1c2ccccc2c2c(=O)[nH]nc(-c3ccc4ccccc4c3)c21 [Example 11c, 5-Methyl-4-naphthalen-2-yl-2,5-dihydro-pyridazino[4,5-b]indol-1-one] | 3% | 0% | – | – | – | – |
| COc1ccc(-c2n[nH]c(=O)c3c2[nH]c2ccccc23)cc1 [Example 4r, 4-(4-Methoxy-phenyl)-2,5-dihydro-pyridazino[4,5-b]indol-1-one] | – | – | > 1000 nM | – | – | > 300 °C |
| O=c1[nH]nc(-c2cc3ccccc3o2)c2[nH]c3ccc(OCc4ccccc4)cc3c12 [Example 4o, 4-Benzofuran-2-yl-8-benzyloxy-2,5-dihydro-pyridazino[4,5-b]indol-1-one] | 10% | 73% | – | – | 381 nM | – |
